Source: patent US20080154179A1 (priority 2005, published 2008)
≈ marks a conversion by molar mass, not a printed value. Entries after “also recorded” stand apart in the source; their conditions may differ.

Tests used:
[1] = cited from earlier work; for transdermal delivery into and across human skin: literature, primaquine: simple transdermal patch, full-thickness excised human skin
plasma cholinesterase = molecular target: T1, plasma cholinesterase (Homo sapiens, UniProt P06276); test: Selective inhibition of cholinesterase activity in plasma samples treated with quinidine; assay type: biochemical; details: quinidine 20 μM, BTC vs other substrate
T1 construct: plasma samples that were treated with quinidine (20 μM); from tissue; host or cells: plasma
T1 sequence (P06276 29-602): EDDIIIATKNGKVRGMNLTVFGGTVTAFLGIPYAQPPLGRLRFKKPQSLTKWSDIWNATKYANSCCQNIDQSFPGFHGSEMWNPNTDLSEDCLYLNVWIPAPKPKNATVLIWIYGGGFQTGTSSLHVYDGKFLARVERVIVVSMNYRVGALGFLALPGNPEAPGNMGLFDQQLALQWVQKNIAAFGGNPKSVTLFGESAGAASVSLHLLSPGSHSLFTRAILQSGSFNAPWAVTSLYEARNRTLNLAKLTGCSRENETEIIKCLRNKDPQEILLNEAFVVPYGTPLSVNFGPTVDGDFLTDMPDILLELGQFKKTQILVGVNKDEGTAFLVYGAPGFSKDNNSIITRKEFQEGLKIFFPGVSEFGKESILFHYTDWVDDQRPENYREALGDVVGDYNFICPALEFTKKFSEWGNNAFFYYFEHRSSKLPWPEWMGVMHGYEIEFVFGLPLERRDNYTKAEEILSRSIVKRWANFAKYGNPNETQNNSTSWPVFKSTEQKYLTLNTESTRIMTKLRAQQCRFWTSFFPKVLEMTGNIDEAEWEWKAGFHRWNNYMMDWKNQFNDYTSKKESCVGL

[2] = blood level; cited from earlier work
[3] = Stability of primaquine after exposure to iontophoresis by TLC of receptor compartment; details: receptor compartment contents, silica gel, n-butanol:acetic acid:water (5:3:2)
[4] = In-vitro transdermal iontophoretic delivery of primaquine patch through epidermal membranes in Mattek permeation device
[5] = relative to base line; cited from earlier work

C[C@H]1c2cccc(O)c2C(=O)C2=C(O)[C@]3(O)C(=O)C(C(N)=O)=C(O)[C@@H](N(C)C)[C@@H]3[C@@H](O)[C@@H]21 [doxycycline]
transdermal delivery into and across human skin [1]: significant amounts

CN1CCCC1c1cccnc1 (centres unmarked) [nicotine]
solubility (physchem): 50 mg/mL (≈ 308 mM)

C=C[C@H]1C[N@@]2CC[C@H]1C[C@@H]2[C@@H](O)c1ccnc2ccc(OC)cc12 [quinidine]
inhibitory effect on plasma cholinesterase activity (plasma cholinesterase): the inhibitory effect was observed only when BTC was used

COc1cc(NC(C)CCCN)c2ncccc2c1 (centres unmarked) [primaquine]
transdermal delivery into and across human skin [1]: could deliver a therapeutic in vivo dose
share of the 10 mg dose delivered passively each hour ([1]; passive delivery, per hour): Approximately 5%
amount that can be delivered transdermally ([1]; within 24 hours, to achieve therapeutic plasma concentrations): 10 mg
therapeutic dosage (level) for the treatment of malaria [2]: 0.03 µg/mL
stability of the primaquine molecule after exposure to iontophoresis (TLC) [3]: intact primaquine is present; also recorded: there is more than one species of molecule present
passive diffusion before and after iontophoresis ([4]; human epidermal membrane, no current, receptor PBS pH 7.4): Minimal passive diffusion
amount delivered using electrotransport ([4]; in 40 minutes): 160 µg

CC1CCC(C(C)C)C(O)C1 (centres unmarked) [menthol]
increase in skin flux [5]: up to eight times the base line
